Reference: US10072249B2, “Method of inducing kidney from pluripotent stem cells” (NATIONAL UNIVERSITY CORPORATION KUMAMOTO UNIVERSITY, priority 2013, dated 2018)

How the values were obtained:
[1] = tested on: Osr1-GFP+ cells from the caudal part of E9.5 embryos; test: Culture of sorted E9.5 posterior Osr1-GFP+ cell aggregates, then colony-formation assay on Wnt4 feeder cells; type: cell-based, mouse
Method: In vitro colony-formation assays were performed as described previously (Osafune et al., 2006). Briefly, progenitor cells were sorted by a FACS Aria II (Becton Dickinson) and plated onto NIH3T3 cells stably expressing Wnt4 at a low density (1,250-10,000 cells/well of 6-well plates). The cells were then cultured in DMEM/F12 containing 5% knockout serum replacement (Invitrogen), 10 μg/ml insulin, 6.7 μg/1 sodium selenite, 5.5 μg/ml transferrin, 1×10^−7 mol/l dexamethasone, 10 mmol/l nicotinamide, 2 mmol/l L-glutamine, 50 μmol/l 2-mercaptoethanol, 5 mmol/l HEPES and penicillin/streptomycin.
For embryonic tissue cultures at E8.5, the presomitic regions of 6-10 somite-stage embryos were harvested and T-GFP+ cells were sorted by FACS. The sorted cells were aggregated at 7,000 cells per aggregate in 96-well low-cell-binding plates and cultured in serum-free chemically-defined medium. In the embryonic tissue cultures at E9.5, the posterior regions from the 23rd somite region of 22-26 somite-stage embryos were harvested and Osr1-GFP+ or Wt1-GFP+ cells were sorted by FACS. The sorted cells were aggregated at 10,000 cells per aggregate in 96-well low-cell-binding plates and cultured in serum-free chemically-defined medium.
Induced cell aggregates from embryonic tissues or ES cells were dissociated by incubation with 0.25% trypsin for 5 min. After blocking in normal mouse serum (Thermo Scientific), cell surface marker staining was carried out in buffer comprising 1% bovine serum albumin, 1×HBSS and 0.035% NaHCO3. Data were analyzed with FlowJo software (Treestar).
RNA was isolated using an RNeasy Plus Micro Kit (Qiagen), and then reverse-transcribed with random primers and Superscript III (Invitrogen). Quantitative PCR was carried out using a Real-Time PCR System (Applied Biosystems) and Thunderbird SYBR qPCR Mix (Toyobo). All samples were normalized by the β-actin expression using the relative standard curve method.
To test the hypothesis, Osr1-GFP+ cells from the caudal part of E9.5 embryos were sorted, and were plated into low-cell-binding plates in the presence of the Rho kinase inhibitor Y27632, which supports cell survival. The cells spontaneously re-aggregated and formed spheres within 24 h.

Osr1-GFP ES cell line = test: Induction of metanephric nephron progenitors from mouse ES cells; type: cell-based; conditions: low concentration, 24 h after 2 days of EB formation
Method: Mouse ES cells (Osr1-GFP) were maintained on murine embryonic fibroblasts in DMEM (Invitrogen) supplemented with 15% fetal calf serum, 0.1 mM 2-mercaptoethanol (Nacalai Tesque) and 1,000 U/ml leukemia inhibitory factor (ESGRO). EB3-DsRed cells, gifts from Dr. Hitoshi Niwa (CDB RIKEN), were maintained as reported previously (Usui et al., Am. J. Pathol. 180, 2417-2426, 2012). Before the initiation of differentiation, the ES cells were passaged once onto feeder cell-free gelatin-coated dishes in DMEM (Invitrogen) supplemented with 15% fetal bovine serum, 0.1 mM 2-mercaptoethanol, 1,000 U/ml leukemia inhibitory factor, 3 μM CHIR99021 (Wako) and 1 μM PD0325901 (Wako). ES cell differentiation was carried out in serum-free medium as follows. […]
RNA was isolated using an RNeasy Plus Micro Kit (Qiagen), and then reverse-transcribed with random primers and Superscript III (Invitrogen). Quantitative PCR was carried out using a Real-Time PCR System (Applied Biosystems) and Thunderbird SYBR qPCR Mix (Toyobo). […]

[2] = exogenous addition to aggregate culture

Molecule: Cc1c[nH]c(-c2cnc(NCCNc3ccc(C#N)cn3)nc2-c2ccc(Cl)cc2Cl)n1 [CHIR99021, 6-[[2-[[4-(2,4-dichlorophenyl)-5-(4-methyl-1H-imidazol-2-yl)-2-pyrimidinyl]amino]ethyl]amino]nicotinonitrile]
- induction of colony-forming progenitors and nephric gene expressions ([1]; high concentrations, 3 or 10 μM): inhibitory
- colony formation ([1]; low concentration, 1 μM): slightly improved

Molecule: C[C@@H](N)[C@H]1CC[C@H](C(=O)Nc2ccncc2)CC1 [Y27632]
- expressions of Pax2, Six2 and Gdnf compared with the starting point ([1]; 48 h of culture of aggregates in low-cell-binding plates): more than 10 fold
- Osr1+/Itga8+/Pdgfra− population (FACS) ([1]; cultured aggregates): 10.0±0.01 % of the total cells

B1: Bmp4: human Bmp4 growth factor (R&D Systems) (protein, UniProt P12644 293-408, looked up)
Bone morphogenetic protein 4: SPKHHSQRARKKNKNCRRHSLYVDFSDVGWNDWIVAPPGYQAFYCHGDCPFPLADHLNSTNHAIVQTLVNSVNSSIPKACCVPTELSAISMLYLDEYDKVVLKNYQEMVVEGCGCR
- induction of colony-forming progenitors and nephric gene expressions [1, 2]: inhibitory

B2: activin: human activin A growth factor (R&D Systems) (protein, UniProt P08476 311-426, looked up)
Inhibin beta A chain: GLECDGKVNICCKKQFFVSFKDIGWNDWIIAPSGYHANYCEGECPSHIAGTSGSSLSFHSTVINHYRMRGHSPFANLKSCCVPTKLRPMSMLYYDDGQNIIKKDIQNMIVEECGCS
modifications: Inhibin beta A chain
- induction of colony-forming progenitors and nephric gene expressions [1, 2]: inhibitory
- expression of the epiblast marker Fgf5 (Osr1-GFP ES cell line): induced transient expression
